Reference: patent publication US20100330093A1, “TREATMENT OF MELANOMA WITH ALPHA THYMOSIN PEPTIDES IN COMBINATION WITH ANTIBODIES AGAINST CYTOTOXIC T LYMPHOCYTE-ASSOCIATED ANTIGEN 4 (CTLA4)” (SciClone Pharmaceuticals, Inc., priority 2007, published 2010)
No end group written: not given here.

Key:
[1] = system: murine B16 melanoma cells; experiment: Subcutaneous murine B16 melanoma tumor model in C57BL/6 mice (tumor volume, tumor weight); type: in vivo; settings: for percent inhibition of tumor weight (PITW): Day 16 necropsy, DTIC 5 mg/kg s.c. daily, TA-1 6 mg/kg s.c. daily, 9H10 i.p. Day 3 (100 μg), Day 6 (50 μg), Day 9 (50 μg), vs vehicle
Description: (§1) C57BL/6 mice were implanted subcutaneously with murine B16 melanoma cells (Cell Culture Center, Institute of Basic Medical Sciences, Peking Union Medical College and Chinese Academy of Medical Sciences PUMC&CAMS, Beijing, P.R.China), followed by treatment with TA-1 or DTIC alone or in combination for 14 consecutive days. The day of tumor implantation was defined as Day 0. Meanwhile 9H10 was given in two groups via i.p. on Day 3, 6 and 9. TA-1 and DTIC were administered daily by s.c. injection. In total, 5 groups of mice (n=10) were used: Group 1: vehicle; Group 2: DTIC 5 mg/kg; Group 3: TA-1 6 mg/kg; Group 4: DTIC 5 mg/kg+9H10 (Day 3 (100 μg), Day 6 (50 μg), Day 9 (50 μg)); Group 5: DTIC 5 mg/kg+TA-1 6 mg/kg+9H10 (Day 3 (100 μg), Day 6 (50 μg), Day 9 (50 μg)) (Table 1). The animals were six weeks old and weighed between 18 and 22 grams at the start of the study. Tumor volume and body weight were measured every three days, and tumor weights were measured on Day 16 at the end of the study.
Phosphate buffered saline (PBS) was used as the negative control article (vehicle). TA-1 solution was stored at 2-8° C. and used up in one week. DTIC(SIGMA) was initially dissolved in 0.01 N HCl and then diluted with PBS to 1 mg/mL. DTIC dosing solution was kept on ice, protected from light, and used within one day. Final dosing solutions were prepared on the day of use by diluting the stock solution to 1× with water. The antibody reagent 9H10 (EBIOSCIENCE) was a ready-to-use agent at a concentration of 1 mg/mL.
Mortality and moribundity were checked twice daily, the body weights were recorded once every 3 days, and tumors were measured using a caliper once every 3 days. […]
Based on the tumor size, the tumor volume (TV) was calculated with the formula: [TV=(Length×Width×Width)/2]. And the percent inhibition (PI) of TV (PITV) was calculated according to the equation below: […]
The anti-tumor effect of the test article was further evaluated with tumor weight (TW) measured on day of necropsy (Day 16). The PI of TW was calculated using the equation below: […]

[2] = Body weight of B16 tumor-bearing C57BL/6 mice during treatment; type: in vivo; settings: TA-1 6 mg/kg s.c. daily, alone or in combination, throughout the course of the study
Description: as §1
Mortality and moribundity were checked twice daily, the body weights were recorded once every 3 days, and tumors were measured using a caliper once every 3 days. At the end of the study (Day 16), the animals were euthanized by CO2 asphyxiation, and the tumors were excised and weighed.

Compound	percent inhibition of tumor weight (PITW) [1] [%]	loss of body weight [2]	mice with palpable tumors ([1]; Day 9, n=10 per group)
CN(C)/N=N/c1[nH]cnc1C(N)=O [DTIC, dacarbazine, reference compound]	28.41	–	–
thymosin alpha 1 (Ac-SDAAVDTSSEITTKDLKEKKEVVEEAEN; ends and bridges not checked; UniProt P06454 2-29, looked up) [TA-1, 28 amino acid peptide with a molecular weight of 3108, initially isolated from Thymosin Fraction 5]	43.35	did not cause any loss of body weight	most mice
